Test results from patent US20180188270A1, “DIAGNOSTIC TEST FOR ALZHEIMER'S DISEASE BASED ON IDENTIFICATION OF A PROTEOLYTIC PATHWAY” (Health Research, Inc., priority 2015, published 2018).
“And” between values parts separate entries of the source, which are not always exact repeats. Identical values can stand only once. “Also recorded” adds a separate entry of the source.

Columns and labels:
Format in all cases: in vivo, mouse
[1] = system: plasma PEPD; experiment: Plasma PEPD concentration in mice by ELISA; details: for plasma level of mPEPD, increase: CCl4 0.5 g/kg i.p., 24 h; for average plasma level of total PEPD, higher than with hPEPD alone: hPEPD 0.2 mg/kg 1 h after last EP dose
Experimental: (§1) Animal studies. All animal studies were performed in accordance with protocols approved by the Institutional Animal Care and Use Committee at Roswell Park Cancer Institute. Male mice at 7-8 weeks of age were used, including wild type (WT) mice (C57BL/6), and mice deficient in FXII (C57BL/6-FXII^−/−) or FVII (C57BL/6-FVII^tTA/tTA). WT C57BL/6 mice were purchased from Taconic. C57BL/6-FXII^−/− mice and C57BL/6-FVII^tTA/tTA mice were bred in our own facility and genotyped. The breeders were kindly provided by Dr. Francis J. Castellino at University of Notre Dame. […] CCl4 was dissolved in corn oil, whereas all other substances were dissolved in PBS. The vehicle or the test substance was given to mice in 0.1 ml volume per 20 g body weight. Blood was collected from the mice at specific times by cardiac puncture at the time of sacrifice by carbon dioxide, and heart, liver and kidney were also collected from some of the mice. Blood was collected into K3 EDTA-containing tubes (Multivette 600 from Sarstedt), unless specified otherwise. All blood samples were promptly centrifuged to obtain plasma samples.
Measurement of plasma levels of PEPD, SRC, Aβ1-42 and FI. […] The plates were washed three times with phosphate buffered saline tween-20 (PBST) and the coated wells were blocked by incubation with 200 μl/well of 1% BSA in PBS for at least 2 h at RT. After another round of wash with PBST, the plates were incubated with appropriately diluted Aβ1-42 standard, SRC standard or plasma samples (100 μl/well) for 2 h at RT. The plates were then washed with PBST and incubated with an anti-Aβ1-42 rabbit polyclonal antibody (sc-9129) or anti-SRC rabbit monoclonal antibody (2123) at 100 μl/well for 2 h at RT. The plates were washed again with PBST, and each well was incubated with a goat anti-rabbit IgG-HRP conjugate (100 μl) for 1 h at RT. After yet another round of wash with PBST, each well was incubated with 100 μl of HRP substrate 3,3′,5,5′-tetramethylbenzedine (Cell Signaling, 7004). Upon adequate color development, 100 μl of stop solution (Cell Signaling, 7002) was added to each well, and absorbance at 450 nm was promptly recorded by a microtiter plate reader. Plasma FI concentration was determined using an assay kit (400-374-130050) from GenWay Biotech, following the manufacturer's instruction.

[2] = system: plasma mSRC; experiment: Plasma SRC concentration in mice by ELISA; details: FXII−/− mice, CCl4 0.5 g/kg or hPEPD 4 mg/kg i.p., 24 h
Experimental: as §1, with “Blood was collected into K3 EDTA-containing tubes (Multivette 600 from Sarstedt), unless specified otherwise. All blood samples were promptly centrifuged to obtain plasma samples.” left out
Measurement of plasma levels of PEPD, SRC, Aβ1-42 and FI. […] Upon adequate color development, 100 μl of stop solution (Cell Signaling, 7002) was added to each well, and absorbance at 450 nm was promptly recorded by a microtiter plate reader. Plasma FI concentration was determined using an assay kit (400-374-130050) from GenWay Biotech, following the manufacturer's instruction.

[3] = system: plasma Aβ1-42; experiment: Plasma Aβ1-42 concentration in mice by ELISA
Experimental: Animal studies. All animal studies were performed in accordance with protocols approved by the Institutional Animal Care and Use Committee at Roswell Park Cancer Institute. Male mice at 7-8 weeks of age were used, including wild type (WT) mice (C57BL/6), and mice deficient in FXII (C57BL/6-FXII^−/−) or FVII (C57BL/6-FVII^tTA/tTA). WT C57BL/6 mice were purchased from Taconic. C57BL/6-FXII^−/− mice and C57BL/6-FVII^tTA/tTA mice were bred in our own facility and genotyped. […] CCl4 was dissolved in corn oil, whereas all other substances were dissolved in PBS. The vehicle or the test substance was given to mice in 0.1 ml volume per 20 g body weight. Blood was collected from the mice at specific times by cardiac puncture at the time of sacrifice by carbon dioxide, and heart, liver and kidney were also collected from some of the mice. Blood was collected into K3 EDTA-containing tubes (Multivette 600 from Sarstedt), unless specified otherwise. All blood samples were promptly centrifuged to obtain plasma samples.

[4] = system: liver; experiment: Liver damage after CCl4: plasma AST and ALT, liver weight; details: WT mice and FXII−/− mice, CCl4 0.5 g/kg i.p., 24 h
Experimental: as §1
Measurement of Plasma Levels of Aspartate Transaminase (AST) and Alanine Transaminase (ALT). Plasma AST activity was measured using the Infinity™ AST (GOT) Reagent kit (Thermo, TR70121). Plasma ALT activity was measured using the Infinity™ ALT (GPT) Reagent kit (Thermo, TR71121). […]

[5] = system: ERBB1 and ERBB2; experiment: Tissue levels and phosphorylation of ERBB1 and ERBB2 by IB; details: CCl4 0.5 g/kg or hPEPD 4 mg/kg i.p., 24 h
Experimental: as §1
IB. […] Protein concentrations in all samples were measured by the BCA assay kit. […] The proteins were transferred to polyvinylidene fluoride membrane, probed with specific antibodies and detected using the ECL Plus Kit (Amersham) or the SuperSignal West Pico Kit (Thermo Scientific).

[6] = system: plasma coagulation factors FXII, PK, HMWK, FXI, FIX, FX, FII, FI and FVII; experiment: Changes in plasma coagulation factors in mice by IB (FI by ELISA)
Experimental: Animal studies. […] Male mice at 7-8 weeks of age were used, including wild type (WT) mice (C57BL/6), and mice deficient in FXII (C57BL/6-FXII^−/−) or FVII (C57BL/6-FVII^tTA/tTA). WT C57BL/6 mice were purchased from Taconic. C57BL/6-FXII^−/− mice and C57BL/6-FVII^tTA/tTA mice were bred in our own facility and genotyped. […] CCl4 was dissolved in corn oil, whereas all other substances were dissolved in PBS. The vehicle or the test substance was given to mice in 0.1 ml volume per 20 g body weight. Blood was collected from the mice at specific times by cardiac puncture at the time of sacrifice by carbon dioxide, and heart, liver and kidney were also collected from some of the mice. Blood was collected into K3 EDTA-containing tubes (Multivette 600 from Sarstedt), unless specified otherwise. All blood samples were promptly centrifuged to obtain plasma samples.
The plates were washed three times with phosphate buffered saline tween-20 (PBST) and the coated wells were blocked by incubation with 200 μl/well of 1% BSA in PBS for at least 2 h at RT. […] The plates were washed again with PBST, and each well was incubated with a goat anti-rabbit IgG-HRP conjugate (100 μl) for 1 h at RT. After yet another round of wash with PBST, each well was incubated with 100 μl of HRP substrate 3,3′,5,5′-tetramethylbenzedine (Cell Signaling, 7004). Upon adequate color development, 100 μl of stop solution (Cell Signaling, 7002) was added to each well, and absorbance at 450 nm was promptly recorded by a microtiter plate reader. Plasma FI concentration was determined using an assay kit (400-374-130050) from GenWay Biotech, following the manufacturer's instruction.
IB. Tissue samples were mixed with RIPA buffer (25 mM Tris-HCl, pH 7.6, 150 mM NaCl, 1% Nonidet P-40, 1% sodium deoxycholate, 0.1% SDS), supplemented with 2 mM phenylmethanesulfonyl fluoride, a proteinase inhibitor mix (Roche Applied Science) and phosphatase inhibitor Cocktail 2 (Sigma-Aldrich). Tissue samples were stroked in a Dounce homogenizer, and the homogenates were cleared by centrifugation at 12,000×g for 15 min at 4° C. Protein concentrations in all samples were measured by the BCA assay kit. Plasma samples were used without further processing (20 μl per sample). Each sample was mixed with 4× loading dye, heated for 5 min at 95° C. and then resolved by SDS-PAGE (8-12.5%). […] The proteins were transferred to polyvinylidene fluoride membrane, probed with specific antibodies and detected using the ECL Plus Kit (Amersham) or the SuperSignal West Pico Kit (Thermo Scientific).

[7] = system: plasma hAβ1-40; experiment: Plasma hAβ1-40 level in mice by ELISA; details: EP 0.5 mg/kg i.p. daily 5 days, hAβ1-40 40 μg/kg 1 h after fifth dose, 6 h
Experimental: Male C57BL/6 mice (7-8 weeks of age) were purchased from Taconic and were treated with vehicle (PBS) and EP (0.5 mg/kg) i.p. once daily for 5 days. […] Blood was collected into K3 EDTA-containing tubes (Multivette 600 from Sarstedt). […] The plates were washed three times with phosphate buffered saline with tween-20 (PBST) and the coated wells were blocked by incubation with 200 μl/well of 1% BSA in PBS for at least 2 h at room temperature (RT). […] The plates were washed again with PBST, and each well was incubated with a goat anti-rabbit IgG-HRP conjugate (100 μl) for 1 h at RT.

[8] = system: total plasma Aβ1-40 and Aβ1-42; experiment: Total plasma level of Aβ1-40 and Aβ1-42 in J20 AD mice and WT mice by ELISA; details: for increase in total plasma levels of Aβ1-40 and Aβ1-42: EP 0.5 mg/kg i.p. daily 5 days
Text: (§2) B6.Cg-Tg(PDGFB-APPSwlnd) 20 Lms/2 JMjax mice, also known as J20 mice, were purchased from Jackson Laboratory. J20 mice express a mutant form of the human Aβ precursor protein (APP) bearing both the Swedish (K670N/M671L) and the Indiana (V717F) mutations (APPSwlnd) (Mucke et al., J Neurosci, 2000, 20, 4050-4058). Neural expression of the transgenic insert is directed by the human platelet-derived growth factor beta polypeptide (PDGFB) promoter. J20 mice in C57BL/6 background (male hemizygotes) were bred to wild type (WT) female C57BL/6J mice (also purchased from Jackson Laboratory). F1 mice were genotyped by PCR at weaning to identify the hemizygotes and the non-transgenic littermates. Mice at age of 1 month and 3 months were treated once daily with vehicle or EP (0.5 mg/kg) i.p for 5 days. EP was given in PBS (0.1 ml per 20 g body weight). Blood was collected from the mice at 6 h after the last PBS/EP dose by cardiac puncture at the time of sacrifice by carbon dioxide. Blood was collected into K3 EDTA-containing tubes (Multivette 600 from Sarstedt).
Total plasma levels of Aβ1-40 and Aβ1-42 were measured by ELISA. Briefly, 96-well ELISA plates were coated with an anti-Aβ1-42 monoclonal antibody (sc-374527) at 0.25 μg/100 μl/well at 4° C. overnight. The plates were washed three times with phosphate buffered saline tween-20 (PBST) and the coated wells were blocked by incubation with 200 μl/well of 1% BSA in PBS for at least 2 h at RT. […] The plates were then washed with PBST and incubated with an anti-Aβ1-42 rabbit polyclonal antibody (sc-9129) at 100 μl/well for 2 h at RT. The plates were washed again with PBST, and each well was incubated with a goat anti-rabbit IgG-HRP conjugate (100 μl) for 1 h at RT. After yet another round of wash with PBST, each well was incubated with 100 μl of HRP substrate 3,3′,5,5′-tetramethylbenzedine (Cell Signaling, 7004). Upon adequate color development, 100 μl of stop solution (Cell Signaling, 7002) was added to each well, and absorbance at 450 nm was promptly recorded by a microtiter plate reader.

[9] = system: coagulation factors FX, FII and FVII; experiment: Coagulation proteases in J20 AD mice by western blotting; details: AD mice at 1 month and 3 months of age, EP 0.5 mg/kg i.p. daily 5 days
Text: as §2

[10] = WT mice, EP 2.5 mg/kg i.p. daily 5 days
[11] = WT mice, EP 2.5 mg/kg daily 5 days, hPEPD 0.2 mg/kg

Molecule: ClC(Cl)(Cl)Cl [CCl4, Carbon tetrachloride]
- plasma level of mPEPD, increase ([1]; FXII−/− mice): 16.7 fold
- plasma level of mPEPD, increase ([1]; WT mice): 3.7 fold
- average plasma level of mSRC, increase [2]: 6.7%
- average plasma level of mAβ1-42, increase ([3]; FXII−/− mice, CCl4 0.5 g/kg or hPEPD 4 mg/kg i.p., 24 h): 24.9%
- liver damage (plasma AST, ALT, liver weight) [4]: caused significant but similar liver damage
- changes in ERBB1/ERBB2 tyrosine phosphorylation and receptor depletion in heart, kidney and liver, WT mice compared to FXII−/− mice [5]: reduced changes in receptor tyrosine phosphorylation

Molecule: enoxaparin [EP]
- average plasma level of total PEPD in WT mice, lower than in FXII−/− mice ([1]; EP pretreatment, 6 h after hPEPD 0.2 mg/kg i.p.): 14.6%
- effect of EP on plasma PEPD level ([1]; FXII−/− mice, EP 2.5 mg/kg i.p. daily 5 days): did not show a significant effect
- plasma level of mPEPD, increase by EP [1, 10]: 2.0 fold and 2.1 fold
- average plasma level of total PEPD, higher than with hPEPD alone ([1]; WT mice, EP 2.5 mg/kg i.p. daily 5 days, 1 h after hPEPD): 35.2 fold
- average plasma level of total PEPD, higher than with hPEPD alone ([1]; WT mice, EP 2.5 mg/kg i.p. daily 5 days, 24 h after hPEPD): 63.8 fold
- average plasma level of total PEPD ([1]; WT mice, EP pretreatment, 6 h after hPEPD 0.2 mg/kg i.p.): 19.7 nM
- reduction of hPEPD dose allowed by EP without decreasing its plasma concentration ([1]; mice, plasma concentration required for inhibition of ERBB2-driven tumors): at least 50 fold
- EP inhibition of hPEPD-induced slight activation of FX, FII and FVII ([6]; FXII−/− mice): largely inhibited by EP
- EP inhibition of activation of FX, FII and FVII ([6]; WT mice treated with hAβ1-42 40 μg/kg, EP 2.5 mg/kg daily 5 days): greatly inhibited the activation of FX, FII and FVII
- EP prevention of hPEPD-induced activation of FXII, PK, HMWK, FXI and FIX [6, 11]: failed to prevent hPEPD from activating FXII, PK, HMWK, FXI and FIX
- EP prevention of hPEPD-induced activation or cleavage of FX, FII, FI and FVII [6, 11]: prevented hPEPD from causing activation or cleavage of FX, FII, FI and FVII
- effect of EP itself on plasma coagulation factors [6, 10]: had no effect on any of the FXII-FVII pathway factors measured; also recorded: had no effect on these factors
- average plasma level of endogenous mAβ1-42, higher in EP-treated mice than in control mice [3, 10]: 1.7 fold
- plasma level of total Aβ1-42, increase after EP plus hAβ1-42 ([3]; WT mice, EP 2.5 mg/kg i.p. daily 5 days, hAβ1-42 40 μg/kg 1 h after last dose, 6 h): 406.0 fold
- elevation of average plasma hAβ1-40 concentration by EP pretreatment [7]: 77.4 fold
- ratio of EP-induced increase in total plasma levels of Aβ1-40 and Aβ1-42 in AD mice to WT mice ([8]; 1 month of age): 8.71-9.32
- ratio of EP-induced increase in total plasma levels of Aβ1-40 and Aβ1-42 in AD mice to WT mice ([8]; 3 month of age): 47.53-56.85
- increase in total plasma levels of Aβ1-40 and Aβ1-42 ([8]; AD mice, 1 month of age): about 2.3 fold
- increase in total plasma levels of Aβ1-40 and Aβ1-42 ([8]; AD mice, 3 month of age): 3.6-4.2 fold
- increase in total plasma levels of Aβ1-40 and Aβ1-42 ([8]; WT mice at both 1 month and 3 months of age): about 1.6 fold
- EP effect on activation of FX, FII and FVII [9]: inhibits the activation of FX, FII and FVII
